# From US9695155B2, “Herbicidal substituted pyrimidinyloxy benzene compounds” (E. I. DU PONT DE NEMOURS AND COMPANY, priority 2013, dated 2017)
# Assays:
# ducksalad = experiment: Test C flooded paddy test; assay type: in vivo, Heteranthera limosa; conditions: Flood, scale 0 to 100 (0 no effect, 100 complete control), 13 to 15 days
# How it was run: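 Under a constant 3 cm flood, test compounds went directly into the paddy water. Following 13 to 15 days of greenhouse growth, treated species and controls were compared by eye.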
# hairy beggarticks = experiment: Test E preemergence; assay type: in vivo, Bidens pilosa; conditions: for Beggarticks plant response rating: scale 0 to 100 (0 no effect, 100 complete control); for Plant response rating, Beggarticks: scale 0 to 100, 0 no effect, 100 complete control
# Source text: (§1) Seeds of plant species selected from corn (Zea mays), soybean (Glycine max), velvetleaf (Abutilon theophrasti), lambsquarters (Chenopodium album), wild poinsettia (Euphorbia heterophylla), palmer pigweed (Amaranthus palmeri), waterhemp (common waterhemp, Amaranthus rudis), surinam grass (Brachiaria decumbens), large (Lg) crabgrass (Digitaria sanguinalis), Brazilian crabgrass (Digitaria horizontalis), fall panicum (Panicum dichotomiflorum), giant foxtail (Setaria faberii), green foxtail (Setaria viridis), goosegrass (Eleusine indica), johnsongrass (Sorghum halepense), ragweed (common ragweed, Ambrosia elatior), barnyardgrass (Echinochloa crus-galli), sandbur (southern sandbur, Cenchrus echinatus), arrowleaf sida (Sida rhombifolia), Italian ryegrass (Lolium multiflorum), dayflower (Virginia (VA) dayflower, Commelina virginica), field bindweed (Convolvulus arvensis), morningglory (Ipomoea coccinea), nightshade (eastern black nightshade, Solanum ptycanthum), kochia (Kochia scoparia), yellow nutsedge (Cyperus esculentus), cocklebur (common cocklebur, Xanthium strumarium), smartweed (ladysthumb smartweed, and hairy beggarticks (Bidens pilosa), were planted into a silt loam soil and treated preemergence with test chemicals formulated in a non-phytotoxic solvent mixture which included a surfactant.
# (§2) At the same time, plants from these crop and weed species and also horseweed (Canada horseweed, Conyza canadensis), waterhemp_RES1, (ALS & Triazine resistant common waterhemp, Amaranthus rudis), and waterhemp_RES2, (ALS & HPPD resistant common waterhemp, Amaranthus rudis) were planted in pots containing Redi-Earth® planting medium (Scotts Company, 14111 Scottslawn Road, Marysville, Ohio 43041) comprising spaghnum peat moss, vermiculite, wetting agent and starter nutrients were treated with postemergence applications of test chemicals formulated in the same manner. Plants ranged in height from 2 to 18 cm for postemergence treatments (1- to 4-leaf stage). Treated plants and controls were maintained in a greenhouse for 14 to 21 days, after which time all species were compared to controls and visually evaluated. Plant response ratings, summarized in Table E, are based on a scale of 0 to 100 where 0 is no effect and 100 is complete control. A dash (-) response means no test result.
# surinam grass = experiment: Test E preemergence; assay type: in vivo, Brachiaria decumbens; conditions: for Surinam Grass plant response rating: scale 0 to 100 (0 no effect, 100 complete control); for Plant response rating, Surinam Grass: scale 0 to 100, 0 no effect, 100 complete control
# Source text: as §1, §2
# wild poinsettia = experiment: Test E preemergence; assay type: in vivo, Euphorbia heterophylla; conditions: for Poinsettia, Wild plant response rating: scale 0 to 100 (0 no effect, 100 complete control); for Plant response rating, Poinsettia, Wild: scale 0 to 100, 0 no effect, 100 complete control
# Source text: as §1, §2
# green foxtail = experiment: Test E preemergence; assay type: in vivo, Setaria viridis; conditions: for Foxtail, Green plant response rating: scale 0 to 100 (0 no effect, 100 complete control); for Plant response rating, Foxtail, Green: scale 0 to 100, 0 no effect, 100 complete control
# Source text: as §1, §2
# nightshade = experiment: Test E preemergence; assay type: in vivo, Solanum ptycanthum; conditions: for Nightshade plant response rating: scale 0 to 100 (0 no effect, 100 complete control); for Plant response rating, Nightshade: scale 0 to 100, 0 no effect, 100 complete control
# Source text: as §1, §2
# soybean = experiment: Test E preemergence; assay type: in vivo, Glycine max; conditions: for Soybean plant response rating: scale 0 to 100 (0 no effect, 100 complete control); for Plant response rating, Soybean: scale 0 to 100, 0 no effect, 100 complete control
# Source text: as §1, §2
# velvetleaf = experiment: Test E preemergence; assay type: in vivo, Abutilon theophrasti; conditions: for Velvetleaf plant response rating: scale 0 to 100 (0 no effect, 100 complete control); for Plant response rating, Velvetleaf: scale 0 to 100, 0 no effect, 100 complete control
# Source text: as §1, §2
# ragweed = experiment: Test E preemergence; assay type: in vivo, Ambrosia elatior; conditions: for Ragweed plant response rating: scale 0 to 100 (0 no effect, 100 complete control); for Plant response rating, Ragweed: scale 0 to 100, 0 no effect, 100 complete control
# Source text: as §1, §2
# fall panicum = experiment: Test E preemergence; assay type: in vivo, Panicum dichotomiflorum; conditions: for Panicum, Fall plant response rating: scale 0 to 100 (0 no effect, 100 complete control); for Plant response rating, Panicum, Fall: scale 0 to 100, 0 no effect, 100 complete control
# Source text: as §1, §2
# waterhemp = experiment: Test E preemergence; assay type: in vivo, Amaranthus rudis; conditions: for Waterhemp plant response rating: scale 0 to 100 (0 no effect, 100 complete control); for Plant response rating, Waterhemp: scale 0 to 100, 0 no effect, 100 complete control
# Source text: as §1, §2
# kochia = experiment: Test E preemergence; assay type: in vivo, Kochia scoparia; conditions: for Kochia plant response rating: scale 0 to 100 (0 no effect, 100 complete control); for Plant response rating, Kochia: scale 0 to 100, 0 no effect, 100 complete control
# Source text: as §1, §2
# sandbur = experiment: Test E preemergence; assay type: in vivo, Cenchrus echinatus; conditions: for Sandbur plant response rating: scale 0 to 100 (0 no effect, 100 complete control); for Plant response rating, Sandbur: scale 0 to 100, 0 no effect, 100 complete control
# Source text: as §1, §2
# Brazilian crabgrass = experiment: Test E preemergence; assay type: in vivo, Digitaria horizontalis; conditions: for Crabgrass, Brazil plant response rating: scale 0 to 100 (0 no effect, 100 complete control); for Plant response rating, Crabgrass, Brazil: scale 0 to 100, 0 no effect, 100 complete control
# Source text: as §1, §2
structure (smiles),measurement,setting,value
Clc1cnc(Oc2ccccc2-n2cc(Cl)cn2)nc1 [Compound 3],"Plant response rating, Ducksalad",ducksalad; 31 g ai/ha,0
same,"Plant response rating, Ducksalad",ducksalad; 62 g ai/ha,50
same,"Plant response rating, Ducksalad",ducksalad; 125 g ai/ha,70
same,"Plant response rating, Ducksalad",ducksalad; 250 g ai/ha,85
Clc1cnc(Oc2cccc(Br)c2-n2cc(Br)cn2)nc1 [Compound 65],"Plant response rating, Ducksalad",ducksalad; 31 g ai/ha,0
same,"Plant response rating, Ducksalad",ducksalad; 62 g ai/ha,30
same,"Plant response rating, Ducksalad",ducksalad; 125 g ai/ha,85
same,"Plant response rating, Ducksalad",ducksalad; 250 g ai/ha,85
"FC(F)(F)c1cnn(-c2ccccc2Oc2ncc(Br)cn2)c1 [Compound 18, 5-bromo-2-[2-[4-(trifluoromethyl)-1H-pyrazol-1-yl]phenoxy]pyrimidine]",Beggarticks plant response rating,"hairy beggarticks; 16 g ai/ha, preemergence",0
same,Beggarticks plant response rating,"hairy beggarticks; 31 g ai/ha, preemergence",0
same,"Plant response rating, Beggarticks","hairy beggarticks; Preemergence, 62 g ai/ha",0
same,"Plant response rating, Beggarticks","hairy beggarticks; preemergence, 125 g ai/ha",0
same,"Plant response rating, Beggarticks","hairy beggarticks; preemergence, 250 g ai/ha",0
same,Surinam Grass plant response rating,surinam grass; 16 g ai/ha,0
same,Surinam Grass plant response rating,surinam grass; 31 g ai/ha,0
same,Surinam Grass plant response rating,surinam grass; 62 g ai/ha,0
same,"Plant response rating, Surinam Grass",surinam grass; 125 g ai/ha,0
same,"Plant response rating, Surinam Grass",surinam grass; 250 g ai/ha,20
same,"Poinsettia, Wild plant response rating",wild poinsettia; 16 g ai/ha,0
same,"Poinsettia, Wild plant response rating",wild poinsettia; 31 g ai/ha,0
same,"Poinsettia, Wild plant response rating",wild poinsettia; 62 g ai/ha,0
same,"Plant response rating, Poinsettia, Wild",wild poinsettia; 125 g ai/ha,0
same,"Plant response rating, Poinsettia, Wild",wild poinsettia; 250 g ai/ha,50
same,"Foxtail, Green plant response rating",green foxtail; 16 g ai/ha,0
same,"Foxtail, Green plant response rating",green foxtail; 31 g ai/ha,0
same,"Foxtail, Green plant response rating",green foxtail; 62 g ai/ha,65
same,"Plant response rating, Foxtail, Green",green foxtail; 125 g ai/ha,100
same,"Plant response rating, Foxtail, Green",green foxtail; 250 g ai/ha,100
same,Nightshade plant response rating,nightshade; 16 g ai/ha,0
same,Nightshade plant response rating,nightshade; 31 g ai/ha,95
same,Nightshade plant response rating,nightshade; 62 g ai/ha,98
same,"Plant response rating, Nightshade",nightshade; 125 g ai/ha,100
same,"Plant response rating, Nightshade",nightshade; 250 g ai/ha,100
same,"Plant response rating, Ducksalad",ducksalad; 31 g ai/ha,80
same,"Plant response rating, Ducksalad",ducksalad; 62 g ai/ha,80
same,"Plant response rating, Ducksalad",ducksalad; 125 g ai/ha,85
same,"Plant response rating, Ducksalad",ducksalad; 250 g ai/ha,90
same,Soybean plant response rating,soybean; 16 g ai/ha,0
same,Soybean plant response rating,soybean; 31 g ai/ha,0
same,Soybean plant response rating,soybean; 62 g ai/ha,60
same,"Plant response rating, Soybean",soybean; 125 g ai/ha,90
same,"Plant response rating, Soybean",soybean; 250 g ai/ha,90
same,Velvetleaf plant response rating,velvetleaf; 16 g ai/ha,25
same,Velvetleaf plant response rating,velvetleaf; 31 g ai/ha,95
same,Velvetleaf plant response rating,velvetleaf; 62 g ai/ha,100
same,"Plant response rating, Velvetleaf",velvetleaf; 125 g ai/ha,100
same,"Plant response rating, Velvetleaf",velvetleaf; 250 g ai/ha,100
same,Ragweed plant response rating,ragweed; 16 g ai/ha,0
same,Ragweed plant response rating,ragweed; 31 g ai/ha,0
same,Ragweed plant response rating,ragweed; 62 g ai/ha,0
same,"Plant response rating, Ragweed",ragweed; 125 g ai/ha,0
same,"Plant response rating, Ragweed",ragweed; 250 g ai/ha,0
same,"Panicum, Fall plant response rating",fall panicum; 16 g ai/ha,0
same,"Panicum, Fall plant response rating",fall panicum; 31 g ai/ha,50
same,"Panicum, Fall plant response rating",fall panicum; 62 g ai/ha,70
same,"Plant response rating, Panicum, Fall",fall panicum; 125 g ai/ha,100
same,"Plant response rating, Panicum, Fall",fall panicum; 250 g ai/ha,100
same,Waterhemp plant response rating,waterhemp; 16 g ai/ha,100
same,Waterhemp plant response rating,waterhemp; 31 g ai/ha,100
same,Waterhemp plant response rating,waterhemp; 62 g ai/ha,100
same,"Plant response rating, Waterhemp",waterhemp; 125 g ai/ha,100
same,"Plant response rating, Waterhemp",waterhemp; 250 g ai/ha,100
same,Kochia plant response rating,kochia; 16 g ai/ha,0
same,Kochia plant response rating,kochia; 31 g ai/ha,0
same,Kochia plant response rating,kochia; 62 g ai/ha,80
same,"Plant response rating, Kochia",kochia; 125 g ai/ha,100
same,"Plant response rating, Kochia",kochia; 250 g ai/ha,100
same,Sandbur plant response rating,sandbur; 16 g ai/ha,0
same,Sandbur plant response rating,sandbur; 31 g ai/ha,0
same,Sandbur plant response rating,sandbur; 62 g ai/ha,0
same,"Plant response rating, Sandbur",sandbur; 125 g ai/ha,5
same,"Plant response rating, Sandbur",sandbur; 250 g ai/ha,75
same,"Crabgrass, Brazil plant response rating",Brazilian crabgrass; 16 g ai/ha,0
same,"Crabgrass, Brazil plant response rating",Brazilian crabgrass; 31 g ai/ha,95
same,"Crabgrass, Brazil plant response rating",Brazilian crabgrass; 62 g ai/ha,98
same,"Plant response rating, Crabgrass, Brazil",Brazilian crabgrass; 125 g ai/ha,100
same,"Plant response rating, Crabgrass, Brazil",Brazilian crabgrass; 250 g ai/ha,100
CCCOc1cnn(-c2c(C#N)cccc2Oc2ncc(Cl)cn2)c1 [Compound 150],"Plant response rating, Ducksalad",ducksalad; 31 g ai/ha,0
same,"Plant response rating, Ducksalad",ducksalad; 62 g ai/ha,40
same,"Plant response rating, Ducksalad",ducksalad; 125 g ai/ha,70
same,"Plant response rating, Ducksalad",ducksalad; 250 g ai/ha,75
